Experimental data as given in patent US11606956B2, “4-chloroindole-3-acetic acid for controlling unwanted plants” (PREMIER TECH TECHNOLOGIES LTÉE, priority 2014, dated 2023).

Key:
[1] = tested on: barley; details: cited from earlier work; for quantity sufficient to affect the growth by 50%: barley (monocotyledonous), aqueous solution containing 10% ethanol
[2] = tested on: dandelion; test: Dandelion control, targeted applications on turfed terrain (damage rating 0-5, mortality %); format: in vivo, Taraxacum officinale; details: for control efficacy (damage rating and mortality percentage): 0.014 to 0.036 g/plant
Procedure: (§1) Control: eradication of weeds assessed, after a certain length of time, based on a visible damage rating of the foliage, varying from 0 to 5, and/or the mortality percentage observed on the treated plants.
The experiment was conducted using a randomized complete block design. Four repetitions were done for each treatment.
Dependent variable: mean damage rating (from 0 to 5) with the variation coefficient assessed after 42 days.
Dependent variable: Mean mortality percentage with the variation coefficient assessed after 42 days.
Treatment: solution of 4Cl-IAA applied at a dose of 0.03 g/plant containing 10% urea as co-ingredient
Dependent variable: mean damage rating (from 0 to 5)
The experiment was conducted using a randomized complete block design. Four repetitions were done for each treatment, except for 4Cl-IAA methyl ester, where three repetitions were done.
Treatment: the applied quantities varied from 0.014 to 0.036 g/plant, except for IAA, where the quantity was higher (0.2 g/plant) in light of the information found in the literature on the effect of the latter.
Dependent variable: mean damage rating (from 0 to 5) and mean mortality percentage assessed between 28 and 35 days after application

[3] = tested on: turf; test: Selectivity: turf impact rating (0-3), targeted applications; format: in vivo; details: doses below 0.1 g/plant; without co-ingredient; after 7 days; rating 0 to 3
Procedure: Selectivity of the effect: absence of a pronounced effect of the herbicide on the desirable plants assessed based on an impact rating on the latter, varying from 0 to 3 in the case of turf. [table] The experiment was conducted using a randomized complete block design. Five repetitions were done for each treatment. Treatment: 4Cl-IAA without co-ingredient Dependent variable: Impact rating (from 0 to 3) on the turf assessed after 7 days.

[4] = tested on: plantain; test: Plantain control, second targeted application; format: in vivo, Plantago sp.; details: 0.015, 0.023 and 0.030 g/plant; without co-ingredient
Procedure: The experiment was conducted using randomized complete block design. Four repetitions were done for each treatment. Treatment: 4Cl-IAA without co-ingredient at three doses, i.e., 0.015, 0.023 and 0.030 g/plant Dependent variable: mean mortality percentage

[5] = tested on: dicotyledonous weed species; test: Weed species controlled with targeted applications (Example 10); format: in vivo; details: 0.022 to 0.036 g/plant; after 21 to 40 days depending on the species; weed species of Table 4
Procedure: The experiments were conducted according to completely randomized design and randomized complete block design with targeted applications for weed control on various terrain covered in turf.
Treatment: 4Cl-IAA without co-ingredient with doses varying from 0.022 to 0.036 g/plant
Variables: Observation of a damage rating above 4 and a mortality percentage above 80%, assessed after a period of 21 to 40 days, depending on the species.

[6] = tested on: dandelion; test: Dandelion control, spreading applications (damage rating 0-5); format: in vivo, Taraxacum officinale; details: 100 mL/m^2, after 50 days
Procedure: as §1
(§2) The experiment was conducted using a randomized complete block design. Three repetitions were done for each treatment with surface areas of 0.5 m^2.
(§3) Treatment: 4Cl-IAA without co-ingredient with an application rate of 100 mL/m^2
(§4) Dependent variable: mean damage rating (from 0 to 5) of the dandelion and mean impact rating (from 0 to 3) on the turf assessed after 50 days

[7] = tested on: turf; test: Selectivity: turf impact rating (0-3), spreading applications; format: in vivo; details: for Turf impact rating: 100 mL/m^2, after 50 days
Procedure: Selectivity of the effect: absence of a pronounced effect of the herbicide on the desirable plants assessed based on an impact rating on the latter, varying from 0 to 3 in the case of turf.
as §2, §3, §4
The experiment was conducted using a completely randomized design with surface areas of 2 m^2 per treatment.
Dependent variable: impact rating (from 0 to 3) on the turf assessed after 4 and 90 days

[8] = Peroxide deterioration tests; format: physicochemical
[9] = Storage stability of finished product; format: physicochemical; details: finished product incorporating the molecule; room temperature
[10] = tested on: peas and mustard; details: aqueous solution containing 10% ethanol; cited from earlier work
[11] = 28 to 35 days after application
[12] = 0.2 g/plant, 28 to 35 days after application

O=C(O)COc1ccc(Cl)cc1Cl [2,4-D, 2,4-dichlorophenoxyacetic acid, reference compound]
quantity sufficient to affect the growth by 50% [1]: 0.5 g/m^2

O=C(O)Cc1c[nH]c2cccc(Cl)c12 [4Cl-IAA, 4-chloroindole-3-acetic acid]
control efficacy (damage rating and mortality percentage) [2, 11]: control efficacies close to those observed with a 2,4-D-based herbicide
damage rating ([2]; after 3 days, solution containing 0.45% of 4Cl-IAA, rating 0 to 5): only a small effect
damage rating for dandelion control ([2]; after 35 days, solution containing 0.45% of 4Cl-IAA, rating 0 to 5): 5
damage rating on dandelions ([2]; dose 0.0075 g per plant, without vs with chelating agent (HEDTA or EDDS), rating 0 to 5): 3.1
decrease of the mortality percentage ([2]; doses below 0.01 g/plant, without co-ingredient, after 42 days): about 50%
turf impact [3]: zero to acceptable
control efficacy (mean mortality percentage), effect of a second application [4]: pronounced improvement in the control efficacy
damage rating [5]: above 4
mortality percentage [5]: above 80%
Dandelion damage rating ([6]; dose 0.3 g/m^2): 3.0
Dandelion damage rating ([6]; dose 0.6 g/m^2): 4.1
Dandelion damage rating ([6]; dose 1.0 g/m^2): 3.8
Dandelion damage rating ([6]; dose 1.2 g/m^2): 3.9
impact rating on the turf ([7]; dose 0.25 g/m^2, after 4 days): 0
impact rating on the turf ([7]; dose 0.25 g/m^2, after 90 days): 0
Turf impact rating ([7]; dose 0.3 g/m^2): 0.7
Turf impact rating ([7]; dose 0.6 g/m^2): 1.7
impact rating on the turf ([7]; dose 0.6 g/m^2, after 4 days): 1
impact rating on the turf ([7]; dose 0.6 g/m^2, after 90 days): 0
impact rating on the turf ([7]; dose 0.9 g/m^2, after 4 days): 1
impact rating on the turf ([7]; dose 0.9 g/m^2, after 90 days): 0
Turf impact rating ([7]; dose 1.0 g/m^2): 1.7
impact rating on the turf ([7]; dose 1.0 g/m^2, after 4 days): 2
impact rating on the turf ([7]; dose 1.0 g/m^2, after 90 days): 0
Turf impact rating ([7]; dose 1.2 g/m^2): 2.0
impact rating on the turf ([7]; dose 1.2 g/m^2, after 4 days): 3
impact rating on the turf ([7]; dose 1.2 g/m^2, after 90 days): 0
stability in peroxide deterioration tests [8]: a certain stability
stability in storage [9]: stability over two years
quantity sufficient to affect the growth by 50% [1]: 0.17 g/m^2
sensitivity of the monocotyledonous plant compared with 2,4-D ([1]; barley): three times higher
impact on the growth of dicotyledonous plants compared to 2,4-D [10]: about 4 times lower

O=C(O)Cc1c[nH]c2ccccc12 [IAA, indole-3-acetic acid]
mean damage rating [2, 12]: interesting damage rating
mean mortality percentage [2, 12]: low mortality percentage

COC(=O)Cc1c[nH]c2cccc(Cl)c12 [methyl ester of 4Cl-IAA]
control efficacy (damage rating and mortality percentage) [2, 11]: control efficacies close to those observed with a 2,4-D-based herbicide
